The structures appear in SMILES notation.

The target of the assay is T1, G1 APOL1 (Homo sapiens, UniProt O14791, I384M/S342G).
T1 construct: expressed in transfected cells
T1 sequence (O14791 28-398 S342G/I384M): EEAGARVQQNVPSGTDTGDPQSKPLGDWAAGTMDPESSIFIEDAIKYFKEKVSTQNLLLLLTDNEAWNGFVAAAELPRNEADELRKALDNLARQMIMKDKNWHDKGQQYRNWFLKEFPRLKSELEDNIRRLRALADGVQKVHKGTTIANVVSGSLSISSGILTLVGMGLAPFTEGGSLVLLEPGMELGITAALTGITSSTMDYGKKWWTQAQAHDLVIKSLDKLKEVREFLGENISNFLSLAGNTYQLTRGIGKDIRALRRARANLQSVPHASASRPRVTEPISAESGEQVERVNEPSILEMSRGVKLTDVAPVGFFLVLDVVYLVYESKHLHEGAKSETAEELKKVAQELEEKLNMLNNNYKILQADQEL
The assay is described as follows: Acute APOL1 Thallium Assay with inducible stable clones of HEK 293 cells. The format is cell-based. The note with it: HEK 293 T-Rex inducible stable clone expressing G1 APOL1; read-out: Thallium Assay (IC50). From the text:
Acute APOL1 Thallium Assay with Inducible Stable Clones of HEK 293 Cells
Apolipoprotein L1 (APOL1) proteins form potassium-permeable cation pores in the plasma membrane. APOL1 risk variants (G1 and G2) induce greater potassium flux than G0 in HEK293 cells. This assay exploits the permeability of thallium (T1+) through ligand-gated potassium channels. The dye produces a bright fluorescent signal upon binding to T1+ conducted through potassium channels. The intensity of the T1+ signal is proportional to the number of potassium channels in the open state. Therefore, it provides a functional indication of the potassium channel activities. During the initial dye-loading step, the T1+ indicator dye as an acetoxymethyl (AM) ester enters the cells through passive diffusion. Cytoplasm esterases cleave the AM ester and relieve its active thallium-sensitive form. The cells are then stimulated with T1+. The increase of fluorescence in the assay represents the influx of T1+ into the cell specifically through the potassium channel (i.e. through APOL1 pores), providing a functional measurement of potassium channel/pore activity. The Thallium assay is conducted with cells expressing G1 APOL1.
APOL1 Cell Line (HEK T-Rex Stable Inducible Cell Line)
• HEK T-Rex System • Tetracycline (Tet) inducible mammalian expression system. • Stably express the Tet repressor to regulate transcription. • Expression under the full-length CMV promoter. • APOL1 stable inducible cell line Clone used: G1 DC3.25 Tissue Culture Media Cell Culture Medium • DMEM+10% FBS+P/S+5 μg/mL blasticidin+1 μg/mL puromycin. • 500 mL DMEM+55 mL FBS+5 mL P/S+280 μL blasticidin S HCl (10 mg/mL)+56 μL puromycin (10 mg/mL). Cell Assay Medium • DMEM with 2% FBS+penicillin streptomycin. Reagents:
Instruments and Equipment • Nuaire cell culture hood, Cat. No. 540-600 • 37° C./5% CO2 incubator link to robotic arm, Liconic: STX110 • Molecular Devices FLIPR^Tetra High throughput cellular screening system, Cat. No. FT0324, Molecular Devices • ThermoFisher MultiDrop 384, Cat. No. 5840300 • Biotek Microfill, Cat. No. ASF1000A-4145 • BioRad TC10 cell counter, Cat. No. 145-0010 Assay Procedures Cells Scaled Up from Frozen Vials • APOL1 G1 3.25 (HEK293 T-Rex) frozen vials: 5 million cells per vial • Step 1, Day 1: Defrost frozen vial into T-225. • Step 2, Day 5: (when 85% confluent): Split one T-225 at 3×10^6 cells per flask. • Step 3, Day 8: Splits cells to set up for the assay plates as described below. Cell Culture
T-Rex APOL1 HEK cells are split twice per week to keep the confluence state below 85% of the culture flask surface area. Cells can be kept until passage 25.
• DMEM high glucose+10% FBS, +P/S, +5 μg/mL blasticidin, +1 μg/mL puromycin. • 500 mL DMEM, +55 mL FBS, +5 mL P/S, +280 μL blasticidin 10 mg/mL, +56 μL Puromycin 10 mg/mL. Assay Media • Opti-MEM reduced serum medium from Invitrogen. Day 1 Preparation of Cell Assay Plates • Culture medium is removed from the x cm^2 T-flask by aspiration. • The cell monolayer is rinsed with PBS 1× at room temperature. PBS is removed by aspiration. • Cells are trypsinized using Trypsin. • The flasks are incubated at room temperature for 2-3 minutes. • Complete DMEM medium is then added. Cell suspension is then transferred to a 50 mL Falcon polypropylene tube. • Cells are then counted using a BioRad TC10 cell counter and the required amount of cells are centrifuged at 1200 RPM for 5 minutes. Required amount is 1.3×10^6 cells/mL APOL1 T-Rex HEK cells. • The pellet is suspended in the assay medium. • Using the MultiDrop, add 20 μL to each well (corresponds to 26000 cells total per well) of a 384-well black, transparent, flat bottom Poly-D coated plate. • Tetracycline as prepared in the following section is added to the cells before plating to induce APOL1 expression. • Plates are left at room temperature for 20 to 30 minutes before incubation at 37° C. and 5% CO2. […]
As to `NC1CC(c2c(-c3ccc(F)cc3)[nH]c3c(F)cc(C(F)(F)F)cc23)C1` (mixture of isomers) [Compound 1, 3-[7-fluoro-2-(4-fluorophenyl)-5-(trifluoromethyl)-1H-indol-3-yl]cyclobutanamine], the IC50 (as a rule, the concentration at which inhibition is half-maximal) was over 1000 nM.
For the compound `O=C(CCO)NC1CC(c2c(-c3ccc(F)cc3)[nH]c3c(F)cc(C(F)(F)F)cc23)C1` (mixture of isomers) [Compound 2, N-[3-[7-fluoro-2-(4-fluorophenyl)-5-(trifluoromethyl)-1H-indol-3-yl]cyclobutyl]-3-hydroxy-propanamide], the IC50 was in the range of 250 to 1000 nM.
As for `CC(C)(O)C(=O)NC1CC(c2c(-c3ccc(F)cc3)[nH]c3c(F)cc(C(F)(F)F)cc23)C1` (mixture of isomers) [Compound 3, N-[3-[7-fluoro-2-(4-fluorophenyl)-5-(trifluoromethyl)-1H-indol-3-yl]cyclobutyl]-2-hydroxy-2-methyl-propanamide], the figure is 250 to 1000 nM.
For `Cc1cccc(-c2[nH]c3c(F)cc(F)cc3c2C2CC(N)C2)c1` (mixture of isomers) [Compound 5, 3-[5,7-difluoro-2-(m-tolyl)-1H-indol-3-yl]cyclobutanamine] the value was 250 to 1000 nM.
For `Cc1cc(-c2[nH]c3c(F)cc(F)cc3c2C2CC(N)C2)ccc1F` (mixture of isomers) [Compound 11, 3-[5,7-difluoro-2-(4-fluoro-3-methyl-phenyl)-1H-indol-3-yl]cyclobutanamine] the value was 250 to 1000 nM; for `CC1(C(=O)NC2CC(Cc3c(-c4ccc(F)cc4)[nH]c4c(F)cc(F)cc34)C2)CCNC1=O` (mixture of isomers) [Compound 169], over 1000 nM; for `CC(CO)NCC1CC(c2c(-c3ccc(F)cc3)[nH]c3c(F)cc(F)cc23)C1` (mixture of isomers) [Compound 378], 250 to 1000 nM.
Consider `CC(CC(=O)N[C@H]1C[C@@H](c2c(-c3ccc(F)cc3)[nH]c3c(F)cc(F)cc32)C1)N1CCOCC1` (mixture of isomers) [Compound 36], for which the IC50 is over 1000 nM.
As for `CC(C(=O)N[C@H]1C[C@@H](c2c(-c3ccc(F)cc3)[nH]c3c(F)cc(F)cc32)C1)n1ccnc1` (mixture of isomers) [Compound 40], the figure is over 1000 nM; as for `CC(NS(C)(=O)=O)C(=O)N[C@H]1C[C@@H](c2c(-c3ccc(F)cc3)[nH]c3c(F)cc(F)cc32)C1` (mixture of isomers) [Compound 55], over 1000 nM.
As for `CC1(C(=O)N[C@H]2C[C@@H](c3c(-c4ccc(F)cc4)[nH]c4c(F)cc(F)cc43)C2)CCC(=O)NC1` (mixture of isomers) [Compound 66], the figure is over 1000 nM.
For `CC(C(=O)N[C@H]1C[C@@H](c2c(-c3ccc(F)cc3)[nH]c3c(F)cc(F)cc32)C1)N(C)C` (mixture of isomers) [Compound 77] the value was over 1000 nM; for `CC1(C(=O)N[C@H]2C[C@H](c3c(-c4ccc(F)cc4)[nH]c4c(F)cc(F)cc43)C2)CCC(=O)NC1` (mixture of isomers) [Compound 97], over 1000 nM; for `CC(CC(=O)N[C@H]1C[C@H](c2c(-c3ccc(F)cc3)[nH]c3c(F)cc(F)cc32)C1)N1CCOCC1` (mixture of isomers) [Compound 102], over 1000 nM.
For the compound `CC(C(=O)N[C@H]1C[C@H](c2c(-c3ccc(F)cc3)[nH]c3c(F)cc(F)cc32)C1)n1ccnc1` (mixture of isomers) [Compound 105], the IC50 is over 1000 nM.
As for `CC(C(=O)N[C@H]1C[C@H](c2c(-c3ccc(F)cc3)[nH]c3c(F)cc(F)cc32)C1)N(C)C` (mixture of isomers) [Compound 111], the figure is over 1000 nM.
As for `CC(NS(C)(=O)=O)C(=O)NC[C@H]1C[C@@H](c2c(-c3ccc(F)cc3)[nH]c3c(F)cc(F)cc32)C1` (mixture of isomers) [Compound 242], the figure is over 1000 nM; as for `CC(C(=O)NC[C@H]1C[C@@H](c2c(-c3ccc(F)cc3)[nH]c3c(F)cc(F)cc32)C1)N(C)C` (mixture of isomers) [Compound 281], over 1000 nM; as for `CC1(C(=O)NC[C@H]2C[C@@H](c3c(-c4ccc(F)cc4)[nH]c4c(F)cc(F)cc43)C2)CCC(=O)NC1` (mixture of isomers) [Compound 306], over 1000 nM.

The record behind these values is patent publication US12281102B2, “Inhibitors of APOL1 and methods of using same” (Vertex Pharmaceuticals Incorporated, priority 2020, dated 2025).
